Article PMC3898116, “FGT-1 is the major glucose transporter in C. elegans and is central to aging pathways” (Biochemical Journal, 2013)

Molecular target: T1, hGLUT1 (Homo sapiens, UniProt P11166)
T1 construct: gene SLC2A1; untagged, expressed in Xenopus laevis oocytes from cRNA
T1 sequence (P11166 1-492): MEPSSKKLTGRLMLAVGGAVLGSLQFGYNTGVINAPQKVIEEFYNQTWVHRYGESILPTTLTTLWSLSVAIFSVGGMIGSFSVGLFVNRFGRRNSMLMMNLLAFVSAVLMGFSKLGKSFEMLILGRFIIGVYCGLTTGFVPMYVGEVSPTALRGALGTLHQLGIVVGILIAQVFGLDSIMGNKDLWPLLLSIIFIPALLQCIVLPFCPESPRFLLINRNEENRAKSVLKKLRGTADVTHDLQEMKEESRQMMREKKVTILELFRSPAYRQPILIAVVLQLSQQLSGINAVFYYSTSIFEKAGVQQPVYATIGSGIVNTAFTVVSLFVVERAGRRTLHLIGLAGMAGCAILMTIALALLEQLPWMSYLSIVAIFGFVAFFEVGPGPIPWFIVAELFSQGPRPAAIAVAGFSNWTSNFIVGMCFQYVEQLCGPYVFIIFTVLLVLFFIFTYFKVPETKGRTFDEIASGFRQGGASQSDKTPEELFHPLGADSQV
Assay: […]glucose uptake in Xenopus oocytes
Format: cell-based
Conditions: incomplete ND96 buffer, 60 min uptake; labelled compound

SMILES: OC[C@H]1OC(O)[C@H](O)[C@@H](O)[C@@H]1O (stereo partly drawn) [D-glucose]
- [14C]glucose uptake in Xenopus oocytes: These proteins transport glucose at levels that are comparable with GLUT1 expressed in the same system
